Where a name gives a salt, the structure may show the parent alone. A value given as a limit tells only on which side of the number the result lay.

This experiment addresses T1, MerTK (Homo sapiens, UniProt Q12866).
T1 construct: endogenous in cells; host or cells: Jurkat cells
T1 sequence (Q12866 21-999): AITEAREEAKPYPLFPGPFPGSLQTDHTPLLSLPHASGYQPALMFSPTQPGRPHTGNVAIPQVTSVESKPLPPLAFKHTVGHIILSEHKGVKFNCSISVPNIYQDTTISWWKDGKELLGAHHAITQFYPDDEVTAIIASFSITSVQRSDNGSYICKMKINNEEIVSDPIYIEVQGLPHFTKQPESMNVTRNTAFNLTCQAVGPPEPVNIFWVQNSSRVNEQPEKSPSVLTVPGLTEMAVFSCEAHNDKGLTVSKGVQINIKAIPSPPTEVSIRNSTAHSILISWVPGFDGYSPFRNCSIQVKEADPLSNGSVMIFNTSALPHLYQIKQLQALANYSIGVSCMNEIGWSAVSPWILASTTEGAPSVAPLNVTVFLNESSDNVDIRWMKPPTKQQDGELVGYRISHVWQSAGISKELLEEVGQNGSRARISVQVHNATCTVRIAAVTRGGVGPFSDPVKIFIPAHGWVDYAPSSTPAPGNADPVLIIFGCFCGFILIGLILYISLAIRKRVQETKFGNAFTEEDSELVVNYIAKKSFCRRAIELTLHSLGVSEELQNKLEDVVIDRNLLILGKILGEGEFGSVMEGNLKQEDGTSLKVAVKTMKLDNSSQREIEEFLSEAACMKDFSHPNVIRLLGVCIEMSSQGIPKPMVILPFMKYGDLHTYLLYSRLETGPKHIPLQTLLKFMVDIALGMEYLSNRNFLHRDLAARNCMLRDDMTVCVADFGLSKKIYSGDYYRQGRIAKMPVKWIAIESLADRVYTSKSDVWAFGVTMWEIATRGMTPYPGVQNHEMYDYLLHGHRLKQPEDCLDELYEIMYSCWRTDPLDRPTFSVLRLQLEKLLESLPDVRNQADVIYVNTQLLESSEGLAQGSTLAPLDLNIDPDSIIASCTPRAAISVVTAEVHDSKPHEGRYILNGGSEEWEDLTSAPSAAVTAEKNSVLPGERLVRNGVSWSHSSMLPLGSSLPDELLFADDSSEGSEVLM
Kind of experiment: MerTk degradation in Jurkat cells (Western blot). It is filed as cell-based. As to conditions: Jurkat, 4 h, 0.001-1 μM, 4 hour-incubation at 37° C., read-out: Jurkat Max % MerTK Degradation. The protocol:
Compounds were reconstituted in DMSO to make 10 mM stock solutions. […] Cells were seeded into 6-well plates with about 5×10^6 cells per well. 2 μL of diluted compounds were added to cells to the final concentration of 0.001-1 μM. After a 4 hour-incubation at 37° C., cells were collected into 2 mL Eppendorf tubes and centrifuged at 1,000 rpm for 5 min. The cell pellets were washed with DPBS (1×) once and resuspended in 60 μL RIPA lysis buffer with Halt Protease and Phophatase Inhibitor Cocktail. The cells were lysed on ice for 10 min, then centrifuged at 14,000 rpm for 10 min at 4° C. and the supernatants were collected for western blots.
The protein concentration of cell lysates was quantified with Pierce™ BCA Protein Assay Kit. […] BCA working reagents were prepared by mixing BCA reagent A with reagent B in 50: 1 ratio. 200 μL of the BCA working reagents were added to 25 μL of BCA standard or cell lysates in microplate, and mixed thoroughly on a plate shaker for 30 seconds. After incubation at 37° C. for 30 min, the absorbance of samples at 562 nm were measured with EnVision Plate Reader.
Protein lysates were prepared in NuPAGE™ LDS sample buffer and NuPAGE™ sample reducing agent, and incubated at 95° C. for 5 min. […] The proteins were transferred to low fluorescence PVDF membranes using the Trans-Blot Turbo Transfer System. Membranes were then blocked in Odyssey blocking buffer at RT for 1 h followed by primary incubation at 4° C. overnight. The primary antibodies were MerTK rabbit monoclonal antibody and actin mouse monoclonal antibody. Membranes were washed three times with TBST (1×), and then incubated with IR Dye 800 CW Goat anti-rabbit and IR Dye 700 CW Goat anti-mouse secondary antibodies in 1:10,000 dilution at RT for 1 h. The Western blot images were obtained using Odyssey Imaging System.
Take `CCCCNc1ncc2c(-c3ccc(CNCCOCCCc4ccc5c(c4)n(C)c(=O)n5[C@H]4CCC(=O)NC4=O)cc3)cn([C@H]3CC[C@H](O)CC3)c2n1` [I-54, 3-[5-(3-[2-[([4-[2-(butylamino)-7-[trans-4-hydroxycyclohexyl]-7H-pyrrolo[2,3-d]pyrimidin-5-yl]phenyl]methyl)amino]ethoxy]propyl)-3-methyl-2-oxo-2,3-dihydro-1H-1,3-benzodiazol-1-yl]piperidine-2,6-dione]: the Dmax lay in the range of 20 to 50%. The result for `Cn1c(=O)n([C@H]2CCC(=O)NC2=O)c2ccc(CCCOCCOCCOCCN3CCN(Cc4ccc(-c5cn([C@H]6CC[C@H](O)CC6)c6nc(NCCC(F)(F)F)ncc56)cc4)CC3)cc21` [I-55, 3-[3-methyl-2-oxo-5-(3-[2-[2-(2-[4-[(4-[7-[trans-4-hydroxycyclohexyl]-2-[(3,3,3-trifluoropropyl)amino]-7H-pyrrolo[2,3-d]pyrimidin-5-yl]phenyl)methyl]piperazin-1-yl]ethoxy)ethoxy]ethoxy]propyl)-2,3-dihydro-1H-1,3-benzodiazol-1-yl]piperidine-2,6-dione] reads over 50%. In the case of `Cn1c(=O)n([C@H]2CCC(=O)NC2=O)c2ccc(CCCOCCOCCN3CCN(Cc4ccc(-c5cn([C@H]6CC[C@H](O)CC6)c6nc(NCCC(F)(F)F)ncc56)cc4)CC3)cc21` [I-56, 3-(3-methyl-2-oxo-5-[3-[2-(2-[4-[(4-[7-[trans-4-hydroxycyclohexy1]-2-[(3,3,3-trifluoropropyl)amino]-7H-pyrrolo[2,3-d]pyrimidin-5-yl]phenyl)methyl]piperazin-1-yl]ethoxy)ethoxy]propyl]-2,3-dihydro-1H-1,3-benzodiazol-1-yl)piperidine-2,6-dione] it was over 50%; in that of `CCCCNc1ncc2c(-c3ccc(CN4CCN(CCOCCOCCOCCOCCCc5ccc6c(c5)n(C)c(=O)n6[C@H]5CCC(=O)NC5=O)CC4)cc3)cn(C3CCCCC3)c2n1` [I-57, 3-(5-[1-[4-([4-[2-(butylamino)-7-cyclohexy1-7H-pyrrolo[2,3-d]pyrimidin-5-yl]phenyl]methyl)piperazin-1-yl]-3,6,9,12-tetraoxapentadecan-15-y1]-3-methyl-2-oxo-2,3-dihydro-1H-1,3-benzodiazol-1-y1)piperidine-2,6-dione], over 50%; in that of `CCCCNc1ncc2c(-c3ccc(CN4CCN(CCOCCOCCOCCOCCCc5ccc6c(c5)n(C)c(=O)n6[C@H]5CCC(=O)NC5=O)CC4)cc3F)cn([C@H]3CC[C@H](O)CC3)c2n1` [I-58, 3-(5-[1-[4-([4-[2-(butylamino)-7-[trans-4-hydroxycyclohexy1]-7H-pyrrolo[2,3-d]pyrimidin-5-y1]-3-fluorophenyl]methyl)piperazin-1-y1]-3,6,9,12-tetraoxapentadecan-15-y1]-3-methyl-2-oxo-2,3-dihydro-1H-1,3-benzodiazol-1-yl)piperidine-2,6-dione], over 50%. In the case of `CCCCNc1ncc2c(-c3ccc(C(C)N4CCN(CCOCCOCCOCCOCCCc5ccc6c(c5)n(C)c(=O)n6C5CCC(=O)NC5=O)CC4)cc3)cn([C@H]3CC[C@H](O)CC3)c2n1` (stereo partly drawn) [I-59, 3-(5-[1-[4-(1-[4-[2-(butylamino)-7-[trans-4-hydroxycyclohexy1]-7H-pyrrolo[2,3-d]pyrimidin-5-yl]phenyl]ethyl)piperazin-1-yl]-3,6,9,12-tetraoxapentadecan-15-y1]-3-methyl-2-oxo-2,3-dihydro-1H-1,3-benzodiazol-1-yl)piperidine-2,6-dione] it was over 50%; in that of `CCCCNc1ncc2c(-c3ccc(S(=O)(=O)N4CCN(CCOCCOCCOCCOCCCc5ccc6c(c5)n(C)c(=O)n6[C@H]5CCC(=O)N(C)C5=O)CC4)cc3)cn([C@H]3CC[C@H](O)CC3)c2n1` [I-60, 3-[5-[1-(4-[4-[2-(butylamino)-7-[trans-4-hydroxycyclohexyl]-7H-pyrrolo[2,3-d]pyrimidin-5-yl]benzenesulfonyl]piperazin-1-yl)-3,6,9,12-tetraoxapentadecan-15-y1]-3-methyl-2-oxo-2,3-dihydro-1H-1,3-benzodiazol-1-yl]-1-methylpiperidine-2,6-dione; formic acid], under 20%. With `CCCCNc1ncc2c(-c3ccc(CN4CCN(CCOCCOCCOCCOCCNc5ccc6c(c5)n(C)c(=O)n6[C@H]5CCC(=O)NC5=O)CC4)cc3)cn([C@H]3CC[C@H](O)CC3)c2n1` [I-61, 3-(5-[15-[4-([4-[2-(butylamino)-7-[trans-4-hydroxycyclohexyl]-7H-pyrrolo[2,3-d]pyrimidin-5-yl]phenyl]methyl)piperazin-1-y1]-4,7,10,13-tetraoxa-1-azapentadecan-1-y1]-3-methyl-2-oxo-2,3-dihydro-1H-1,3-benzodiazol-1-y1)piperidine-2,6-dione; bis(formic acid)], the Dmax is over 50%. The result for `CCCCNc1ncc2c(-c3ccc(CN4CCN(CCCOCCCOCCCc5ccc6c(c5)n(C)c(=O)n6[C@H]5CCC(=O)NC5=O)CC4)cc3)cn([C@H]3CC[C@H](O)CC3)c2n1` [I-62, 3-[5-[3-(3-[3-[4-([4-[2-(butylamino)-7-[trans-4-hydroxycyclohexy1]-7H-pyrrolo[2,3-d]pyrimidin-5-yl]phenyl]methyl)piperazin-1-y1]propoxy]propoxy)propy1]-3-methyl-2-oxo-2,3-dihydro-1H-1,3-benzodiazol-1-y1]piperidine-2,6-dione dihydrochloride] reads over 50%. The result for `Cn1c(=O)n([C@H]2CCC(=O)NC2=O)c2ccc(CCCOCCOCCOCCN3CCN(Cc4ccc(-c5nn([C@H]6CC[C@H](O)CC6)c6nc(NCCC(F)(F)F)ncc56)cc4)CC3)cc21` [I-63, 3-[3-methyl-2-oxo-5-(3-[2-[2-(2-[4-[(4-[1-[trans-4-hydroxycyclohexyl]-6-[(3,3,3-trifluoropropyl)amino]-1H-pyrazolo[3,4-d]pyrimidin-3-yl]phenyl)methyl]piperazin-1-yl]ethoxy)ethoxy]ethoxy]propyl)-2,3-dihydro-1H-1,3-benzodiazol-1-yl]piperidine-2,6-dione; formic acid] reads over 50%; that for `Cn1c(=O)n([C@H]2CCC(=O)NC2=O)c2ccc(CCCOCCOCCN3CCN(Cc4ccc(-c5nn([C@H]6CC[C@H](O)CC6)c6nc(NCCC(F)(F)F)ncc56)cc4)CC3)cc21` [I-64, 3-(3-methyl-2-oxo-5-[3-[2-(2-[4-[(4-[1-[trans-4-hydroxycyclohexyl]-6-[(3,3,3-trifluoropropyl)amino]-1H-pyrazolo[3,4-d]pyrimidin-3-yl]phenyl)methyl]piperazin-1-yl]ethoxy)ethoxy]propyl]-2,3-dihydro-1H-1,3-benzodiazol-1-y1)piperidine-2,6-dione], over 50%.

Turning to `CCCCNc1ncc2c(-c3ccc(CN4CCC(OCCCOCCCc5ccc6c(c5)n(C)c(=O)n6[C@H]5CCC(=O)NC5=O)CC4)cc3)cn([C@H]3CC[C@H](O)CC3)c2n1` [I-66, 3-[5-[3-(3-[[1-([4-[2-(butylamino)-7-[trans-4-hydroxycyclohexyl]-7H-pyrrolo[2,3-d]pyrimidin-5-yl]phenyl]methyl)piperidin-4-yl]oxy]propoxy)propyl]-3-methyl-2-oxo-2,3-dihydro-1H-1,3-benzodiazol-1-yl]piperidine-2,6-dione], the Dmax was over 50%.

For the origin of these results see patent US20260042762A1 (Kymera Therapeutics, Inc., priority 2018, published 2026).
